Data as given in US9102637B2, “Bicyclic thiazole compounds” (CARNA BIOSCIENCES INC., priority 2013, dated 2015).

Molecular target: human TNIK (N-terminal segment, TNIK_N, residues 1-314) (Homo sapiens (Human), UniProt Q9UKE5)
Assay: TNIK kinase assay (mobility shift)
Assay type: biochemical
Details: TNIK_N kinase activity, 25 μM ATP, 1 h at room temperature
Source text: Preparation of Recombinant Human TNIK (N-Terminal Segment):
A cDNA encoding the N-terminal segment (TNIK_N, residues 1-314) containing the kinase domain of human TNIK (NM_015028.1) was amplified from cDNA mixture synthesized from human tissue (Biochain) by PCR using the following primers.
The cDNA was subcloned into baculovirus transfer vector pFastBac_GSTb that includes protease cleavage site and glutathione S-transferase purification tag (GST-tag). The plasmid was purified and the insertion of the pFastBac_GSTb-TNIK_N was confirmed by DNA sequencing. Then E. coli DH10Bac competent cells were transformed with the plasmid to prepare the recombinant bacmid according to the instructions for the Bac-to-Bac™ baculovirus expression systems (Invitrogen). The Sf9 cells were transfected with the recombinant bacmid containing pFastBac_GSTb-TNIK_N using Cellfectin Reagent (Invitrogen) in SF-9001I serum free media (Invitrogen). The viral supernatant was collected from the medium 72 h after transfection. The virus was amplified three times by infecting actively growing Sf9 or Sf21 cells in Grace's insect media (Invitrogen) supplemented with 10% FCS and an antibiotic-antimycotic reagent (Invitrogen) for 72 h at 27° C. in T-flask or roller bottles. The titer of amplified TNIK_N virus was estimated at 2.36×10^8 pfu/ml by using BacPAK™ Baculovirus Rapid Titer kit (Clontech).
Log-phase Sf21 cells (2×10^6 cells/ml) in the Grace's insect media were infected with the recombinant baculovirus at MOI of 3.0 and incubated in roller bottles (250 ml media per bottle) for 72 h at 27° C., after which, the cells were collected by centrifugation, and the cell pellet washed with cold PBS and kept at −80° C. until purification. The following purification procedures were carried out at 4° C. The frozen cells were thawed on ice and lysed in lysis buffer (50 mM Tris-HCl, pH 7.5, 150 mM NaCl, 1% Nonidet P-40, 5 mM DTT, 0.5 mM EDTA, 0.5 mM EGTA) supplemented with 1 mM phenylmethansulfonylfluoride, 2 μg/ml leupeptin, 2 μg/ml aprotinin, 1 mM NaF, 100 μM sodium orthovanadate, and 1 μM cantharidin by sonication. The suspended lysate was cleared by centrifugation at 9000g for 20 min and the supernatant was incubated for 1 h with glutathione Sepharose beads (GE Healthcare). The beads were suspended in buffer-H (50 mM Tris-HCl, pH 7.5, 1 M NaCl, 1 mM DTT, 0.5 mM EDTA, 0.5 mM EGTA and 0.05% Brij35) and washed with buffer-H followed by buffer-L (50 mM Tris-HCl, pH 7.5, 150 mM NaCl, 1 mM DTT, 0.5 mM EDTA, 0.5 mM EGTA, 0.05% Brij35) in an Econo-pack column (BIO-RAD). The bound TNIK_N was eluted with elution buffer (50 mM Tris-HCl, pH 8.0, 150 mM NaCl, 1 mM DTT, 10% glycerol, 0.5 mM EDTA, 0.5 mM EGTA and 5 mM reduced glutathione). The eluted fractions were collected and determined the protein concentration by Bradford reagent (BIO-RAD). The TNIKN fractions were pooled and desalted using 10DG column (BIORAD) equilibrated with the storage buffer (50 mM Tris-HCl, pH 7.5, 150 mM NaCl, 1 mM DTT, 10% glycerol, 0.05% Brij35). The purified TNIKN was characterized by electrophoresis using 4-20% polyacrylamide gels and matrix-assisted laser desorption/ionization reflection time-of-flight (MALDI-TOF) mass spectrometry on a Voyager-DE RP MALDI/TOF (Applied Biosystems). TNIK_N was confirmed by the molecular weight and. MASCOT Peptide Mass Fingerprint.
The kinase assays were conducted in a 20 μl volume using 384-well plates (Greiner). The reaction mixture consists of compound or vehicle (1% DMSO), 0.08 ng/μl TNIK_N, 1 μM FITC-labeled substrate peptides, including E-aminocaproic acid and 7 amino acids (described as SEQ ID NO.3 in “Kinase assay of TEST EXAMPLE 1” of WO 2010/064111(P.31)), 20 mM Hepes, pH 7.5, 0.01% Triton X-100, 5 mM MgCl2, 25 μM ATP and 2 mM DTT. As blank, TNIK N was excluded from the reaction mixture of vehicle (1% DMSO). […]

Chain of human TNIK (N-terminal segment, TNIK_N, residues 1-314) (Q9UKE5 1-314): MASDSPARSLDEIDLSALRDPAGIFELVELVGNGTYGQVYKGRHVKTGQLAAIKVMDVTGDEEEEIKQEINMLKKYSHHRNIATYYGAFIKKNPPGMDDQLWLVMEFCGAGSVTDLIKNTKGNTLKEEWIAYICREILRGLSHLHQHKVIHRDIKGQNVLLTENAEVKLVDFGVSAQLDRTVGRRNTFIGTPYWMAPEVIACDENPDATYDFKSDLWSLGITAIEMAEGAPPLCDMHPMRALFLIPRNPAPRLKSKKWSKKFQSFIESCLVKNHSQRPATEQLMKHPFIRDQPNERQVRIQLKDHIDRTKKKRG

| Compound | IC50 |
| --- | --- |
| CN(c1ccc2ncccc2c1)c1nc(C(N)=O)c(NC(=O)c2csc(CN3CCOCC3)c2)s1 [Example 51] | 5.7 nM |
| NC(=O)c1nc(Nc2ccc3ccccc3c2)sc1NC(=O)c1ccc(CN2CCNC(=O)C2)cc1 [Example 180, 2-(naphthalen-2-ylamino)-5-{4-[(3-oxopiperazin-1-yl)methyl]benzamido}thiazole-4-carboxamide] | 4.2 nM |
| NC(=O)c1nc(Nc2ccc3ccccc3c2)sc1NC(=O)c1ccc(Cn2ccnc2)s1 [Example 251, 5-{5-[(1H-imidazol-1-yl)methyl]thiophene-2-carboxamido}-2-(naphthalen-2-ylamino)thiazole-4-carboxamide] | 7.7 nM |
| NC(=O)c1nc(Nc2ccc3ccccc3c2)sc1NC(=O)c1ccc(Cn2cnc([N+](=O)[O-])c2)cc1 [Example 239, 2-(naphthalen-2-ylamino)-5-{4-[(4-nitro-1H-imidazol-1-yl)methyl]benzamido}thiazole-4-carbox-amide] | 5.9 nM |
| NC(=O)c1nc(Nc2ccc3ccccc3c2)sc1NC(=O)c1ccc(CN2CCC(N)CC2)cc1 [Example 222, 5-{4-[(4-aminopiperidin-1-yl)methyl]benzamido}-2-(naphthalen-2-ylamino)thiazole-4-carboxamide] | 1.3 nM |
| NC(=O)c1nc(Nc2ccc3ccccc3c2)sc1NC(=O)c1ccc(Cc2nn[nH]n2)cc1 [Example 231, 5-{4-[(2H-tetrazol-5-yl)methyl]benzamido}-2-(naphthalen-2-ylamino)thiazole-4-carboxamide] | 2.9 nM |
| NC(=O)c1nc(Nc2ccc3ccccc3c2)sc1NC(=O)c1ccc[nH]1 [Example 33, 2-(naphthalen-2-ylamino)-5-(1H-pyrrole-2-carbox-amido)thiazole-4-carboxamide] | 7.5 nM |
| COc1cc(Nc2nc(C(N)=O)c(NC(=O)c3ccsc3)s2)cc2ccccc12 [Example 74, 2-[(4-methoxynaphthalen-2-yl)amino]-5-(thio-phene-3-carboxamido)thiazole-4-carboxamide] | 51.3 nM |
| CN(C)[C@H]1CCN(Cc2ccc(C(=O)Nc3sc(Nc4ccc5ccccc5c4)nc3C(N)=O)cc2)C1 [Example 221, (S)-5-(4-{[3-(dimethylamino)pyrrolidin-1-yl]methyl}benzamido)-2-(naphthalen-2-ylamino) thiazole-4-carboxamide] | 2.6 nM |
| NC(=O)c1nc(Nc2ccc3ccccc3c2)sc1NC(=O)C#CCCO [Example 225, 5-(5-hydroxypent-2-ynamido)-2-(naphthalen-2-ylamino)thiazole-4-carboxamide] | 4 nM |
| NC(=O)c1nc(Nc2cccc3cccnc23)sc1NC(=O)c1ccc(Cn2ccnc2)cc1 [Example 259, 5-{4-[(1H-imidazol-1-yl)methyl]benzamido}-2-(quinolin-8-ylamino)thiazole-4-carboxamide] | 5.5 nM |
| NC(=O)c1nc(Nc2ccc3ccccc3c2)sc1NC(=O)CCCCCN1CCOCC1 [Example 92, 5-(6-morpholinohexanamido)-2-(naphthalen-2-ylamino)thiazole-4-carboxamide] | 20.2 nM |
| NC(=O)c1nc(Nc2ccc3cc(CO)ccc3c2)sc1NC(=O)C1CC1 [Example 138, 5-(cyclopropanecarboxamido)-2-{[6-(hydroxy-methyl)naphthalen-2-yl]amino}thiazole-4-carbox-amide] | 5.8 nM |
| NC(=O)c1nc(Nc2ccc3ncccc3c2)sc1NC(=O)c1ccc(Cn2ccnc2)cc1 [Example 250, 5-{4-[(1H-imidazol-1-yl)methyl]benzamido}-2-(quinolin-6-ylamino)thiazole-4-carboxamide] | 3 nM |
| CN1CCN(Cc2cc(C(=O)Nc3sc(Nc4cccc5ncccc45)nc3C(N)=O)cs2)CC1 [Example 56, 5-{5-[(4-methylpiperazin-1-yl)methyl]thiophene-3-carboxamido}-2-(quinolin-5-ylamino)thiazole-4-carboxamide] | 8.2 nM |
| NC(=O)c1nc(Nc2cccc3ncccc23)sc1NC(=O)c1ccc(Cn2ccnc2)cc1 [Example 254, 5-{4-[(1H-imidazol-1-yl)methyl]benzamido}-2-(quinolin-5-ylamino)thiazole-4-carboxamide] | 4.8 nM |
| NC(=O)c1nc(Nc2ccnc3ccccc23)sc1NC(=O)c1ccc(Cn2ccnc2)cc1 [Example 255, 5-{4-[(1H-imidazol-1-yl)methyl]benzamido}-2-(quinolin-4-ylamino)thiazole-4-carboxamide] | 26.5 nM |

The remaining lines, values ahead:

| IC50 | Compound |
| --- | --- |
| 8.4 nM | NCCNc1ccc(C(=O)Nc2sc(Nc3ccc4ccccc4c3)nc2C(N)=O)cc1 [Example 188, 5-{4-[(2-aminoethyl)amino]benzamido}-2-(naph-thalen-2-ylamino)thiazole-4-carboxamide] |
| 12.9 nM | NC(=O)c1nc(Nc2ccc3ccc(F)cc3c2)sc1NC(=O)c1ccc(NCCO)cc1 [Example 124, 2-[(7-fluoronaphthalen-2-yl)amino]-5-{4-[(2-hydroxyethyl)amino]benzamido}thiazole-4-carbox-amide] |
| 14.8 nM | COc1ccc2cc(Nc3nc(C(N)=O)c(NC(=O)c4ccc(NCCO)cc4)s3)ccc2c1 [Example 113, 5-{4-[(2-hydroxyethyl)amino]benzamido}-2-[(6-methoxynaphthalen-2-yl)amino]thiazole-4-carbox-amide] |
| 15.1 nM | C[C@H](O)CNc1ccc(C(=O)Nc2sc(Nc3ccc4ccccc4c3)nc2C(N)=O)cc1 [Example 146, (S)-5-{4-[(2-hydroxypropyl)amino]benzamido}-2-(naphthalen-2-ylamino)thiazole-4-carboxamide] |
| 11.1 nM | Cc1ccc(C(=O)Nc2sc(Nc3ccc4cc(CO)ccc4c3)nc2C(N)=O)s1 [Example 151, 2-{[6-(hydroxymethyl)naphthalen-2-yl]amino}-5-(5-methylthiophene-2-carboxamido)thiazole-4-carboxamide] |
| 5.5 nM | NC(=O)c1nc(Nc2ccc3cc(CO)ccc3c2)sc1NC(=O)c1ccsc1 [Example 70, 2-{[6-(hydroxymethyl)naphthalen-2-yl]amino}-5-(thiophene-3-carboxamido)thiazole-4-carbox-amide] |
| 10.7 nM | CC(O)CNc1ccc(C(=O)Nc2sc(Nc3ccc4ccccc4c3)nc2C(N)=O)cc1 (stereo not drawn) [Example 30, 5-{4-[(2-hydroxypropyl)amino]benzamido}-2-(naphthalen-2-ylamino)thiazole-4-carboxamide] |
| 27.4 nM | CN(CCO)c1ccc(C(=O)Nc2sc(Nc3ccc4ccccc4c3)nc2C(N)=O)cc1 [Example 29, 5-{4-[(2-hydroxyethyl)methylamino]benzamido}-2-(naphthalen-2-ylamino)thiazole-4-carboxamide] |
| 24.4 nM | NC(=O)c1nc(Nc2ccc3ccccc3c2)sc1NC(=O)c1ccc(NCCO)c(N)c1 [Example 121, 5-{3-amino-4-[(2-hydroxyethyl)amino]benzamido}-2-(naphthalen-2-ylamino)thiazole-4-carbox-amide] |
| 10.1 nM | NC(=O)c1nc(Nc2ccc3cc(F)ccc3c2)sc1NC(=O)c1ccc(Cn2ccnc2)cc1 [Example 249, 5-{4-[(1H-imidazol-1-yl)methyl]benzamido}-2-[(6-fluoronaphthalen-2-yl)amino]thiazole-4-carbox-amide] |
